This is an account of results in publication PMC12320299 (Chemical Science, 2025).

One data set has as its system SW480 cancer cells. The data set can be described thus: Proteome profiling of compound-treated SW480 cancer cells (24 h, approx. IC50, CYT and NE fractions). Format: cell-based, human. On the procedure:
To gain insight into potential modes of action and derive structure–activity relationships on a molecular level, proteomic profiling experiments were carried out based on label-free quantification (LFQ) by nano-liquid chromatography tandem mass spectrometry (nLC-MS/MS). […] Six replicates were used per condition. The perturbations were evaluated at subcellular resolution by fractionating cells into cytoplasmic (CYT) and nuclear (NE) protein fractions. Those have been separately proteolytically digested and analysed (Fig. 3A). The perturbations with the 3-Et-NQ and 3-Morph-NQ complexes were performed against their respective solvent-treated controls (CON), yielding a total of 72 samples. […] Statistical significance of individual protein regulations was calculated by multiple testing-corrected P-values based on 5% false discovery rate (FDR = 0.05 and S0 = 0.1).
The position of each group represents the summed fold-changes of the individual proteins in the group according to the subcellular space, i.e., CYT and NE fractions, while the size represents the number of proteins in each group. […]
Proteome profiling of compound-treated SW480 cancer cells […]
cells per well and left to adhere in complete cell culture medium. After 24 h, the medium was exchanged with fresh complete medium (DMSO mock control) or fresh medium containing […]
solution in DMSO, respectively) and incubated for another 24 h. Each condition was carried out in hexuplicates. The cells were processed according to a nucleocytoplasmic fractionation protocol as previously described.3 All steps were performed on ice. The medium was removed, and the cells were washed twice with 1×PBS (phosphate buffered saline, 3 mL). Then, PBS was thoroughly removed. Isotonic lysis buffer (10 mM HEPES, 10 mM NaCl, 3.5 mM MgCl2, 1 mM EGTA, 0.25 M Sucrose, 0.5% Triton X-100) containing protease inhibitors (1% PMSF, Sigma, and 1% protease and phosphatase inhibitor cocktail, Roche) was added to the flasks, the cells were scraped off and transferred into labelled 15 mL Falcon tubes. The cellular membrane was ruptured using shear stress by pressing the cell suspension through a syringe 9–12 times. Membrane rupture with intact nuclei was monitored under a microscope. After centrifugation (960 g, 5 min), the supernatant containing the cytoplasmic (CYT) proteins was transferred into new tubes containing ice-cold ethanol (1 : 5, HPLC grade) and precipitated […]
overnight at –20 °C. The pellet containing the nuclei was incubated with a hypertonic solution (10 mM Tris-HCl, 1 mM EDTA and 0.5 M NaCl) and subsequently diluted 1:10 with NP-40 buffer (10 mm Tris-HCl, 1 mm EDTA and 0.5% Triton X-100) containing protease inhibitors (1% PMSF, Sigma, and 1% protease and phosphatase inhibitor cocktail, Roche). After centrifugation (960 g, 5 min), the soluble nuclear (NE) proteins were also transferred into new tubes containing ice-cold ethanol (1 : 5, HPLC grade) and precipitated overnight at –20 °C.
The precipitated proteins were finally pelleted by centrifugation (5000 g, 30 min, 4 °C), the solution was decanted and the pellet dried under vacuum.

Data set [1] can be described thus: Stability study by UV-Vis spectroscopy in PBS (1% DMSO). The conditions noted are these: 40 μM 1a/2a, 80 μM 1b/2b. In kind it is physicochemical. The method, then:
Stability Study by UV-Vis Spectroscopy
All four compounds were freshly diluted in PBS (1% DMSO) from a DMSO stock solution at […]
80 µM. The stability of the compounds was monitored in a UV-Vis spectrophotometer (Perkin Elmer lambda 35 photometer) over 96 h by acquiring an UV-Vis spectrum every 30 mins. The percentage of the remaining intact compound was calculated by the ratio of the maximum absorbance of the tridentate complexes’ characteristic absorption band around 350– 370 nm after a given timepoint (A) compared to the one directly after dilution (A0). […]

Data set [2] can be described thus: Solubility in phosphate buffered saline. Format: physicochemical. The conditions noted are these: PBS with 1% DMSO. An excerpt:
Fig. 2 (A) Chemical structures of the investigated naphthoquinone-based metal(arenes) in this study.

[3] abbreviates: cytoplasmic fraction, FDR = 0.05, S0 = 0.1.

The structures appear in SMILES notation.

Turning to `CCC1=C2[O][Ru][O]C2(n2cccn2)c2ccccc2C1=O.Cc1ccc(C(C)C)cc1` (stereo not drawn) [Compound 1a, [(3-ethyl-4-oxo-(pyrazolyl)-dihydronaphthalene)(cymene)ruthenium(II)]], in the data set with SW480 cancer cells, the “N° proteins down-regulated, NE” value is 211 and the “N° proteins upregulated, NE” value is 178. Besides, in the data set on SW480 cancer cells (CYT and NE), the “N° significantly regulated proteins, Total” value stood at 810. In addition, the “TP53 regulation in cytoplasmic fraction” value with SW480 cancer cells (CYT fraction) is given as “strongest down-regulated protein”. Also, in the data set on SW480 cancer cells (setting [3]), the “N° proteins down-regulated, CYT” value is 298 and the “N° proteins upregulated, CYT” value was determined as 123. In addition, the “intact complex, UV-vis, 24 h” value in data set [1] (24 h) came to 75%. The “intact complex, UV-vis, 96 h” value in data set [1] (96 h) was determined as 53%. For the same compound, in data set [2], the “Solubility in PBS” value was found to be 170 µM.
